Measured values published in patent US6348464B1, “Pyrrolecarbonylimino derivatives as naaladase inhibitors” (Guilford Pharmaceuticals, Inc., priority 1999, dated 2002).
pEC50: −log10 of the molar value. Structures can show the parent of a compound that is named as a salt. Where two headings read alike, the source gives them in different places.

Assays:
NAALADase = target: T1, NAALADase (Homo sapiens, UniProt Q04609); assay: In vitro inhibition of NAALADase activity; type: biochemical; details: 3-H-NAAG substrate, 37° C.; read-out: K1 (nM), in vitro inhibition of NAALADase activity
T1 construct: from tissue
Experimental: Protocol For Assaying In Vitro Inhibition of NAALADase Activity
The following were combined in each assay tube: 100 μL of 10 mM CoCl2, 250 μL of 200 mM Tris chloride, 100 μL tissue, 100 μL of 10 mM NAALADase inhibitor in Bakers H2O, and Bakers H2O to make a total volume of 950 μL. Each tube was then incubated for 10 minutes in a 37° C. water bath. 50 μL of 3-H-NAAG was then added to each assay tube and incubated for an additional 15 minutes in a 37° C. water bath. The assay was stopped by adding 1.0 ml of 0.1 M sodium phosphate.
Glutamate released by the action of the NAALADase enzyme was separated from the assay solution using an anion exchange resin. The resin was equilibrated to 25° C., 2.0 ml of the resin was added to a Pasteur pipette pre-loaded with a single glass bead, and each column was washed twice with distilled H2O. A column was placed over a scintillation vial and 200 μL of an assay sample was loaded onto the column. After draining, glutamate was eluted using two 1.0 ml washes of 1 M formic acid. After addition of 10 ml of scintillation cocktail, each sample was counted for 2 minutes on a scintillation counter.

cortical cell cultures = assay: In vitro assay on ischemia (potassium cyanide and 2-deoxyglucose insult); type: cell-based; details: 1 h, read-out: EC50, concentration required to cause a 50% reduction in glutamate toxicity following an ischemic insult
Experimental: To examine the in vitro effect of the compounds of formula I on ischemia, cortical cell cultures were treated with various compounds of formula I during an ischemic insult utilizing potassium cyanide and 2-deoxyglucose, and for one hour thereafter (for experimental details, see Vornov et al., J. Neurochem., Vol. 65, No. 4, pp. 1681-1691 (1995)). Neuroprotective effect is expressed as EC50, the concentration of the compound which is required to cause a 50% reduction in glutamate toxicity following an ischemic insult.

T1 sequence (Q04609 whole entry): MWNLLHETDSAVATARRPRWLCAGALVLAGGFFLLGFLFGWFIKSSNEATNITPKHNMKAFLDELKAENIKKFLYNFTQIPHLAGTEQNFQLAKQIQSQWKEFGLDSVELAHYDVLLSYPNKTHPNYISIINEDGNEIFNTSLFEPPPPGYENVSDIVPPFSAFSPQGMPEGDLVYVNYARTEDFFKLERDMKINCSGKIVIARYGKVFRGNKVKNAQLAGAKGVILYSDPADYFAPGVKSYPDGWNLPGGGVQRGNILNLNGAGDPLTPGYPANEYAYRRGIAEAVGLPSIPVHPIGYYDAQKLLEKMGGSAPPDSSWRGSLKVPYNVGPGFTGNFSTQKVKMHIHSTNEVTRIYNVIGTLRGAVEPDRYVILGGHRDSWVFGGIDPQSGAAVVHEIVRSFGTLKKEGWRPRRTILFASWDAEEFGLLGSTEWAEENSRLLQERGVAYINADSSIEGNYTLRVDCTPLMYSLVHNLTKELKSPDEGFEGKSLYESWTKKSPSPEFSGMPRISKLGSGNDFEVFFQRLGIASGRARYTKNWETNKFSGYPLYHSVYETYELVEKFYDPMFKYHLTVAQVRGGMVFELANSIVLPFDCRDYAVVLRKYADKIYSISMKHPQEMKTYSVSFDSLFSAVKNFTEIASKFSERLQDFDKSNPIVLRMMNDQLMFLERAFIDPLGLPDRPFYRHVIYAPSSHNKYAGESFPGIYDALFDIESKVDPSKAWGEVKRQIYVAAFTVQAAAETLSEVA

O=C(Nc1ccc(S(=O)(=O)O)c2cc(S(=O)(=O)O)cc(S(=O)(=O)O)c12)c1cccc([N+](=O)[O-])c1 [8-(3-nitrobenzamido)-1,3,5-naphthalenetrisulfonic acid]
Ki (NAALADase): 20200 nM | pEC50 (cortical cell cultures; cortical cell cultures, treated during potassium cyanide and 2-deoxyglucose insult and for one hour thereafter): < 6.00

Cc1ccc(C(=O)Nc2ccc(S(=O)(=O)O)c3cc(S(=O)(=O)O)cc(S(=O)(=O)O)c23)cc1NC(=O)c1cccc(NC(=O)Nc2cccc(C(=O)Nc3cc(C(=O)Nc4ccc(S(=O)(=O)O)c5cc(S(=O)(=O)O)cc(S(=O)(=O)O)c45)ccc3C)c2)c1 [Suramin, sodium salt, 8,8′-[carbonylbis[imino-3,1-phenylenecarbonylimino (4-methyl-3,1-phenylene)carbonylimino]]bis-1,3,5-naphthalenetrisulfonic acid hexasodium salt]
Ki (NAALADase): 527 nM | pEC50 (cortical cell cultures): 7.61
